Experimental findings from ChEMBL document CHEMBL5291721, “A preclinical secondary pharmacology resource illuminates target-adverse drug reaction associations of marketed drugs” (Nat Commun, 2023) are described below.

The target of assay [1] is Growth hormone secretagogue receptor type 1 (Homo sapiens, UniProt Q92847).
In assay [2] the target is Sodium-dependent dopamine transporter (Homo sapiens, UniProt Q01959).
Another assay concerns the target D(1A) dopamine receptor (Homo sapiens, UniProt P21728). In kind it is functional, cell-based.
Assay [3] deals with Beta-2 adrenergic receptor (Homo sapiens, UniProt P07550). In kind it is functional, cell-based.
Chain of Beta-2 adrenergic receptor (P07550 whole entry): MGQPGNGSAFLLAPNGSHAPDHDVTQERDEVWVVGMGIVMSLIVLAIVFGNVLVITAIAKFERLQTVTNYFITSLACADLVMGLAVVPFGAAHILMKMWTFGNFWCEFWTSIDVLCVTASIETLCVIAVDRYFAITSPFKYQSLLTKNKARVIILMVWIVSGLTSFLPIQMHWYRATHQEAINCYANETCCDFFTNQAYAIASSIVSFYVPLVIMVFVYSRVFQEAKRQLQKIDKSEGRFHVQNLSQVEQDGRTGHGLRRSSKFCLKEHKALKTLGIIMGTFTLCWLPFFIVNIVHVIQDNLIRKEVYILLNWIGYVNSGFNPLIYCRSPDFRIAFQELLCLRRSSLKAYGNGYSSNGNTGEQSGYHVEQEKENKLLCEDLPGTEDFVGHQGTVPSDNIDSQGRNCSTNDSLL
Assay [4] concerns the target T1, 5-hydroxytryptamine receptor 1A (Homo sapiens, UniProt P08908).
T1 sequence (P08908 whole entry): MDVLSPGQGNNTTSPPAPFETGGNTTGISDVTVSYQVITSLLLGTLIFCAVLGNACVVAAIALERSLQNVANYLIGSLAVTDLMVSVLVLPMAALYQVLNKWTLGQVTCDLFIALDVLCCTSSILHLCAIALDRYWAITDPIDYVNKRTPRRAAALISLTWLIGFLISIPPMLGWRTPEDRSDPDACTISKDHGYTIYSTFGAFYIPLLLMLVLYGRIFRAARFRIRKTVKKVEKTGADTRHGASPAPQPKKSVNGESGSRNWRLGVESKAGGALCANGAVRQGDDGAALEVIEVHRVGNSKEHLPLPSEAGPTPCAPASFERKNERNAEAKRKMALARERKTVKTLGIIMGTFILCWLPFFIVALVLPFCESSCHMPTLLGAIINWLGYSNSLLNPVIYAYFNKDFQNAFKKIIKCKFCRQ
The format is functional, cell-based.

Another assay deals with T2, Progesterone receptor (Homo sapiens, UniProt P06401).
T2 sequence (P06401 whole entry): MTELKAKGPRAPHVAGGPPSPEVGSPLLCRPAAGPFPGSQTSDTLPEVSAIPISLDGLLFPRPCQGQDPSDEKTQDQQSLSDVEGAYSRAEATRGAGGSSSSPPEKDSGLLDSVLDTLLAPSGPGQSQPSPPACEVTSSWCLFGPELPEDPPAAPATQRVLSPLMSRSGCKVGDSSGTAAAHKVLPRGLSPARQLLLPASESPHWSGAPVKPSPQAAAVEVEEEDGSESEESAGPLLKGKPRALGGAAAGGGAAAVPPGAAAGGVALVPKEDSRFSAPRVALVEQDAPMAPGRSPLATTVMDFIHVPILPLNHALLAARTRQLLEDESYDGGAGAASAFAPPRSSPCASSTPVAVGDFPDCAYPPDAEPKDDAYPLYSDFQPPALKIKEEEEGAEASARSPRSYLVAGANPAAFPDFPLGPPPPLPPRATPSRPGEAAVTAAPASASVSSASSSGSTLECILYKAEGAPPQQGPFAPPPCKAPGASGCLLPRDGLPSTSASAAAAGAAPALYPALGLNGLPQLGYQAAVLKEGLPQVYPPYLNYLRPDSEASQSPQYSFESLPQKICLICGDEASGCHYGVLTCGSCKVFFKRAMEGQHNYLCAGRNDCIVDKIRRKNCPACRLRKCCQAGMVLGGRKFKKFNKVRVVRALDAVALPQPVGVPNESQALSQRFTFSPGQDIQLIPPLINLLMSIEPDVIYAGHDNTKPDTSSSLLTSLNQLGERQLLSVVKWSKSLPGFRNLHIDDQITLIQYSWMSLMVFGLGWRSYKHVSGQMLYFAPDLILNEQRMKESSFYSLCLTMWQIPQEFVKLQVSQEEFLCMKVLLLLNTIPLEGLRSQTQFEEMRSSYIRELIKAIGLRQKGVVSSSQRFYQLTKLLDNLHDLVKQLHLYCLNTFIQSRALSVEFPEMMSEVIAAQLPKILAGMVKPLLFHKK
In kind it is functional.

The target of assay [5] is Delta-type opioid receptor (Homo sapiens, UniProt P41143).
Chain of Delta-type opioid receptor (P41143 whole entry): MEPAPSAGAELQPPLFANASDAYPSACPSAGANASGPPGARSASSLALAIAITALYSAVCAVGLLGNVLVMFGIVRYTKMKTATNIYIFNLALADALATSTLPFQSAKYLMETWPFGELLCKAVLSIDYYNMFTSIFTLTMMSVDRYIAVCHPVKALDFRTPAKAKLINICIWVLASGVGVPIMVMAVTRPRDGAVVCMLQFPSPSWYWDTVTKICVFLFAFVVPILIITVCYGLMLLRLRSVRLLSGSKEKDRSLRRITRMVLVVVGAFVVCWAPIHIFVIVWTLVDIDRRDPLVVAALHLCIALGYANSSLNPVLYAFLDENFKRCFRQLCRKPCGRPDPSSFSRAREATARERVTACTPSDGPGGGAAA
The next assay addresses Cannabinoid receptor 1 (Homo sapiens, UniProt P21554). In kind it is functional, cell-based.
A further assay concerns the target Mu-type opioid receptor (Homo sapiens, UniProt P35372).
For another assay, the target named is Histamine H3 receptor (Homo sapiens, UniProt Q9Y5N1).
Chain of Histamine H3 receptor (Q9Y5N1 whole entry): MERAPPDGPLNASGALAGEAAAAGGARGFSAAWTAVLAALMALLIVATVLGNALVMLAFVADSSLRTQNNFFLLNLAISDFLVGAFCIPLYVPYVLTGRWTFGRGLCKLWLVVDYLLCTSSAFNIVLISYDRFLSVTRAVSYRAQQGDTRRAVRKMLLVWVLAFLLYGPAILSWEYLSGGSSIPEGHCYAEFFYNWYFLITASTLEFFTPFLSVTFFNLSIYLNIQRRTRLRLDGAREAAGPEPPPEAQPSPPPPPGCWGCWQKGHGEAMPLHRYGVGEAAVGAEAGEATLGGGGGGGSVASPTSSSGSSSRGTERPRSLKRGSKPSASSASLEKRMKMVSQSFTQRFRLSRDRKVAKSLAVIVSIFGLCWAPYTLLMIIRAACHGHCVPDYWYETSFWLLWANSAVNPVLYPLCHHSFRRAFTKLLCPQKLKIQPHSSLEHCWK
In assay [6] the target is Voltage-dependent L-type calcium channel subunit alpha-1C (Rattus norvegicus, UniProt P22002). In kind it is functional.
Assay [7] has as its target T3, Muscarinic acetylcholine receptor M2 (Homo sapiens, UniProt P08172).
T3 sequence (P08172 whole entry): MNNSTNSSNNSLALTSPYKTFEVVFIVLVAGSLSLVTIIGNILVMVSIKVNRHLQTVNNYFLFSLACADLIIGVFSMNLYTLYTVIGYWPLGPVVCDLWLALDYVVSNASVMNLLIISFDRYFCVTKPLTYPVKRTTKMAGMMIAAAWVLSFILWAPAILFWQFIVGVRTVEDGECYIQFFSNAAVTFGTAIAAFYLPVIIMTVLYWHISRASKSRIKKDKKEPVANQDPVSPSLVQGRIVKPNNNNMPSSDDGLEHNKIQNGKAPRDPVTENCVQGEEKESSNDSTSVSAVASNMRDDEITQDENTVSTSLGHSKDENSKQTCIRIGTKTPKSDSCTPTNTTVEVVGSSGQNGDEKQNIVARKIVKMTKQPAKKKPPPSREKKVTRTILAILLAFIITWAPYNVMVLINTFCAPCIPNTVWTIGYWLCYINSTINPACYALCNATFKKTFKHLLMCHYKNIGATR
The format is functional, cell-based.

In assay [8] the target is T4, Alpha-1A adrenergic receptor (Homo sapiens, UniProt P35348).
T4 sequence (P35348 whole entry): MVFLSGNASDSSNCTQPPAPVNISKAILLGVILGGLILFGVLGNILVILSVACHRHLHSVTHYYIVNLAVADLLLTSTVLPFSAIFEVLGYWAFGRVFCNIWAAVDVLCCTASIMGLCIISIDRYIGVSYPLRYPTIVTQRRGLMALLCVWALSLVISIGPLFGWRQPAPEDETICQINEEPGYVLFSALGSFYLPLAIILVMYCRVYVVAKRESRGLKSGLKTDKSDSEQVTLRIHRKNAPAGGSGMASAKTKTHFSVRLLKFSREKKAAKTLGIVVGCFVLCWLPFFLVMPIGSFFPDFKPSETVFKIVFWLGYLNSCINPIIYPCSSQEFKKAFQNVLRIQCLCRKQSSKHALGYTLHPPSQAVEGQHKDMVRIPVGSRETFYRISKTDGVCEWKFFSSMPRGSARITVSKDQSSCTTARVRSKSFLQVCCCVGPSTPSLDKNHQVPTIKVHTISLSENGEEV
The format is functional, cell-based.

For assay [9], the target named is T3, Muscarinic acetylcholine receptor M2. The format is functional, cell-based. This is another data set of the same source.
Assay [10] concerns the target Gamma-aminobutyric acid receptor subunit alpha-1 (Rattus norvegicus, UniProt P62813).

The structures appear in SMILES notation. Values joined by “and” are separate entries in the source; they are usually repeats but may differ in a detail not shown here. Equal entries are not always repeated.

In general, AC50 refers to the concentration at which the activity in the assay is half-maximal.
Also: assay procedure not described here.

Chain of Sodium-dependent dopamine transporter (Q01959 whole entry): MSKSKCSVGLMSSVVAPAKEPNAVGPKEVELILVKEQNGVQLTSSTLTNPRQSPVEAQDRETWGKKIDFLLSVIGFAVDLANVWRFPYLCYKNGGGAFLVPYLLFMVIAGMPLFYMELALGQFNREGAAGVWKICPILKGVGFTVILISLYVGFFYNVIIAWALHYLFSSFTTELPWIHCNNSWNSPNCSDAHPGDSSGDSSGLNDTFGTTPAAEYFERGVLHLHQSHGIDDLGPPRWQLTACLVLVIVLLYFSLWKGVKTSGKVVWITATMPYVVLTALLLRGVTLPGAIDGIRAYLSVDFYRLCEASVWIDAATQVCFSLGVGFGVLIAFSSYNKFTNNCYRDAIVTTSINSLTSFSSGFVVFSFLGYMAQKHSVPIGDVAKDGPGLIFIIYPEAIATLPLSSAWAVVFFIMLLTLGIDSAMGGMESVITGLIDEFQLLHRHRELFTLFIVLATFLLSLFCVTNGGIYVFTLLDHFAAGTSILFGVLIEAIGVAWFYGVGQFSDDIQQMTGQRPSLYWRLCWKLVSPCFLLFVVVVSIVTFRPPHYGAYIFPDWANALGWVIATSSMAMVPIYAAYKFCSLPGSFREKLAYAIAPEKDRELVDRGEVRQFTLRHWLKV
Chain of Mu-type opioid receptor (P35372 whole entry): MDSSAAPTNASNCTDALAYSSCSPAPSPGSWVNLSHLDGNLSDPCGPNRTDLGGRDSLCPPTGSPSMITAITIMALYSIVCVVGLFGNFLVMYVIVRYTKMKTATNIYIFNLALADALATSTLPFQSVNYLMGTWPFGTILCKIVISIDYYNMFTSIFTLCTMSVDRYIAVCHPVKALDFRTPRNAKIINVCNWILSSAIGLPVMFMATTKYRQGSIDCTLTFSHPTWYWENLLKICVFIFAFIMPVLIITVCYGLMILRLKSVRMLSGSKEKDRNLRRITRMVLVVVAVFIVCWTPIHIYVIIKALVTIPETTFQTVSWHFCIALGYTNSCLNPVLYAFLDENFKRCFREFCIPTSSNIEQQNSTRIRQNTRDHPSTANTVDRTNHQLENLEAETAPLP
Chain of Cannabinoid receptor 1 (P21554 whole entry): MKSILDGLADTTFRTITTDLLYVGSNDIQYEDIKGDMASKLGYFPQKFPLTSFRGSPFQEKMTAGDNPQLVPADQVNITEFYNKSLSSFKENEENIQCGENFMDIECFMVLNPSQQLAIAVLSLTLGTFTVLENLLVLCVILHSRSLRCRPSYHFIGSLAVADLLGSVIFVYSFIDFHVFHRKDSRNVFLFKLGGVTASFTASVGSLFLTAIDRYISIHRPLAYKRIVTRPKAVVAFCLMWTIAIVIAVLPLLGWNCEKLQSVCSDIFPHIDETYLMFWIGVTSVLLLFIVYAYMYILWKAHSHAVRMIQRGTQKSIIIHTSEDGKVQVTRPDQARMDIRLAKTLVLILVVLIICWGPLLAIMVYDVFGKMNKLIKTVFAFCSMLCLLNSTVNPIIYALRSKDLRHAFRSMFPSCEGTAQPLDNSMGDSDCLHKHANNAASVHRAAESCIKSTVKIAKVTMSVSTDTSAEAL
Chain of Gamma-aminobutyric acid receptor subunit alpha-1 (P62813 whole entry): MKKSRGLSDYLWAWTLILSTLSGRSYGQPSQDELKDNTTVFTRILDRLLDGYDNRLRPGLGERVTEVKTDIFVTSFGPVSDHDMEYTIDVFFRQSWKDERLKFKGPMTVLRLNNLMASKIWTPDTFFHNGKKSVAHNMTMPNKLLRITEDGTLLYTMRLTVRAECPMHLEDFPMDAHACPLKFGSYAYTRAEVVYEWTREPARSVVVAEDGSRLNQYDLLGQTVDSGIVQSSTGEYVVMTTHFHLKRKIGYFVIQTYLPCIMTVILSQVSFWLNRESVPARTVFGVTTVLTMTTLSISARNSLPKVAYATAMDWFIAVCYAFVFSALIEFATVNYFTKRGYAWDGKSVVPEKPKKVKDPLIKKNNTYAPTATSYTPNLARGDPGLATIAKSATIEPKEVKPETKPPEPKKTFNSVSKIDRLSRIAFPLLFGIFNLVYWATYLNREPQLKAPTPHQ
Chain of D(1A) dopamine receptor (P21728 whole entry): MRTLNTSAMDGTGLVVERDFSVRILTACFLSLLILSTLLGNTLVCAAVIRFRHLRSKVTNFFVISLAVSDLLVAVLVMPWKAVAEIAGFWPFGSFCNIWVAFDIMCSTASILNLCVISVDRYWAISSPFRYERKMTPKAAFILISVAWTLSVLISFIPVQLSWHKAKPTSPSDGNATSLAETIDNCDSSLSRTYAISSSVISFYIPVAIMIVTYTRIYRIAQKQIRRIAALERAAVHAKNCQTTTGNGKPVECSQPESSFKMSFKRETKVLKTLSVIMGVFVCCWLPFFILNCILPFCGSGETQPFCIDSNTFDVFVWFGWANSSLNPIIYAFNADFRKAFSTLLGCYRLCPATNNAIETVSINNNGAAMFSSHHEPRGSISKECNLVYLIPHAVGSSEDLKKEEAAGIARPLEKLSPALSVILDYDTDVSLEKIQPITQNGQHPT
Chain of Growth hormone secretagogue receptor type 1 (Q92847 whole entry): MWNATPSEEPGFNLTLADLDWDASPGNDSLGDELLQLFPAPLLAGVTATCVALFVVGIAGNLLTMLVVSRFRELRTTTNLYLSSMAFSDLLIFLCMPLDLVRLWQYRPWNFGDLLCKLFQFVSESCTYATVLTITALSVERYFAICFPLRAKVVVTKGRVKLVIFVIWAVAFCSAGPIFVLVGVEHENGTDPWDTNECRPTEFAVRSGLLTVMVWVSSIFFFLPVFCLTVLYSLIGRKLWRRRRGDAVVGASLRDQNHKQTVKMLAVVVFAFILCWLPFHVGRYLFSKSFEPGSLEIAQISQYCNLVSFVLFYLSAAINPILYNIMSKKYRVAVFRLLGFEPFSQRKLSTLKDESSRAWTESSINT

`Cc1onc(-c2ccccc2)c1-c1ccc(S(N)(=O)=O)cc1` [VALDECOXIB]: the AC50 in [1] was > 30 µM; in assay [2], > 30 µM; at D(1A) dopamine receptor, > 10 µM; in assay [3] it was > 30 µM; in assay [4], > 10 µM; at Progesterone receptor, > 30 µM. The AC50 was > 30 µM in assay [5]; > 30 µM at Cannabinoid receptor 1; > 30 µM at Mu-type opioid receptor; > 30 µM at Histamine H3 receptor; > 10 µM in [6]; > 10 µM in assay [7]. Also, the AC50 in [8] was > 30 µM; in [9], > 10 µM; in [10], > 10 µM.
For the compound `COc1cc2nccc(Oc3ccc(NC(=O)C4(C(=O)Nc5ccc(F)cc5)CC4)cc3)c2cc1OC` [CABOZANTINIB], the AC50 in assay [1] was > 30 µM; in [2], > 30 µM; on D(1A) dopamine receptor it was > 30 µM; in assay [3], > 30 µM; in assay [4], > 30 µM; on Progesterone receptor, 24 µM. For the same compound, the AC50 (in assay [5]; at Cannabinoid receptor 1; on Mu-type opioid receptor; on Histamine H3 receptor; in assay [7]; in [8]) was > 30 µM throughout. Besides, the AC50 in [9] is > 30 µM.
As to `N[C@@H](CC(=O)N1CCn2c(nnc2C(F)(F)F)C1)Cc1cc(F)c(F)cc1F` [SITAGLIPTIN], the AC50 (in [1]; in assay [2]; on D(1A) dopamine receptor; in [3]; in [4]; on Progesterone receptor) was > 30 µM throughout. The AC50 is > 30 µM in assay [5]; > 30 µM at Cannabinoid receptor 1; > 30 µM at Mu-type opioid receptor; > 30 µM on Histamine H3 receptor; > 10 µM in assay [6]; > 30 µM in assay [7]. Besides, the values for the AC50 in assay [9] and in [10] were > 30 µM and > 10 µM, respectively.
As for `COc1ccccc1Oc1c(NS(=O)(=O)c2ccc(C(C)(C)C)cc2)nc(-c2ncccn2)nc1OCCO` [BOSENTAN], the AC50 in assay [1] is > 30 µM; in assay [2], > 30 µM; on D(1A) dopamine receptor, > 10 µM; in [3], > 30 µM; in assay [4], > 10 µM; at Progesterone receptor, > 30 µM. Also, the AC50 in assay [5] is > 30 µM; on Cannabinoid receptor 1, > 30 µM; at Mu-type opioid receptor, > 30 µM; on Histamine H3 receptor, > 10 µM; in [6], > 10 µM; in assay [7] it was > 10 µM. Moreover, the concentration at half-maximal activity (AC50) in assay [9] and in assay [10] was > 10 µM each time.
Turning to `CC(C)N(CCC(C(N)=O)(c1ccccc1)c1ccccn1)C(C)C` (stereo not drawn) [DISOPYRAMIDE], the AC50 in [1] is > 30 µM; in assay [2], > 30 µM; at D(1A) dopamine receptor it was > 10 µM; in [3] it was > 30 µM; in [4], > 10 µM; at Progesterone receptor, 27 µM. Further, the AC50 in assay [5] is > 30 µM; at Cannabinoid receptor 1, > 30 µM; on Mu-type opioid receptor it was > 30 µM; on Histamine H3 receptor, > 30 µM; in [6], > 10 µM; in [7], > 10 µM. Besides, the AC50 in assay [9] and in [10] was > 10 µM throughout.
Take `CC(C)Cc1ccc(C(C)C(=O)O)cc1` (stereo not drawn) [IBUPROFEN]: the concentration at half-maximal activity (AC50) in [1] is > 30 µM; in assay [2] it was > 30 µM; at D(1A) dopamine receptor, > 10 µM; in assay [3] it was > 30 µM; in assay [4], > 10 µM; in assay [5] it was > 30 µM. Further, the AC50 at Cannabinoid receptor 1 was > 30 µM; on Mu-type opioid receptor, > 30 µM; at Histamine H3 receptor it was > 10 µM; in [6], > 10 µM; in assay [7] it was > 10 µM; in assay [8], > 30 µM. Further, the AC50 in assay [9] and in [10] was > 10 µM throughout.
As to `C=CC[C@@H]1/C=C(\C)C[C@H](C)C[C@H](OC)[C@H]2O[C@@](O)(C(=O)C(=O)N3CCCC[C@H]3C(=O)O[C@H](/C(C)=C/[C@@H]3CC[C@@H](O)[C@H](OC)C3)[C@H](C)[C@@H](O)CC1=O)[C@H](C)C[C@@H]2OC` [TACROLIMUS ANHYDROUS], the AC50 is > 30 µM in [1]; 19.6 µM and > 10 µM in assay [2]; > 30 µM at D(1A) dopamine receptor; > 30 µM in assay [3]; > 30 µM in assay [4]; > 30 µM at Progesterone receptor. Further, the AC50 was > 30 µM in assay [5]; > 30 µM at Cannabinoid receptor 1; > 30 µM on Mu-type opioid receptor; > 30 µM at Histamine H3 receptor; > 10 µM in assay [6]; > 10 µM in assay [7]. The AC50 in [9] was > 10 µM; in [10], > 30 µM.
